The results in this text go back to PubChem BioAssay (NCI).

Several values for one entry are separate records, joined by “and”; a condition that tells them apart may be missing. Identical values can stand only once.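 Grown in 96-well plates, cells were treated for 48 hours with each compound at five concentrations. Insufficient inhibition: endpoint recorded as highest concentration tested. GI50: concentration for 50% inhibition of growth. At the TGI there is no net growth.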

This test deals with MDA-MB-468 breast. Put plainly: DTP human tumour cell line panel, 48 h.
`C=CCN1C=CC(=O)[C@H](O[Si](C)(C)C(C)(C)C)[C@@H]1/C=C/c1ccccc1`: the GI50 – broadly, the concentration giving 50% growth inhibition – is 8.27 µM and the TGI (in general, the concentration giving total growth inhibition) is 22.2 µM.

For the molecule `COC(=O)c1c2c(c(C)[n+]([O-])c1C)C(=O)C=C(NCc1ccc(OC)cc1)C2=O`, the GI50 was 0.679 µM and the TGI came to 2.01 µM.

On to `CCN(CC)CCOc1ccc(C(=C(C)Cc2ccc(OC)cc2)c2ccc(OCCN(CC)CC)cc2)cc1`, for which the GI50 is 3.27 µM and the TGI turned out to be 6.65 µM.

As to `Cc1cc(-c2nnc(N)nc2-c2ccc(F)cc2)cc(Cl)n1`, the GI50 is 20.6 µM and the TGI is over 100 µM.

Take `O=CN1N=C(c2ccc(Cl)cc2)CC1c1cccc(Nc2ccnc3cc(Cl)ccc23)c1` (configuration not stated): the GI50 was 0.284 µM and the concentration for total growth inhibition (TGI) came out at 3.93 µM.

As for `Cn1ccnc1C(=O)/C=C/c1ccc(CNC(=O)c2ccc(F)cc2)cc1`, the GI50 was 1.66 µM and the TGI came to 7.04 µM.

Take `Nc1cc(-c2cccc(OC(F)(F)F)c2)nc2ccc(N3CCCC3)cc12`: the 50% growth inhibitory concentration (GI50) was 0.0337 µM and 0.0304 µM and 0.0288 µM; the TGI was 0.237 µM and 0.115 µM and 0.136 µM.

As for `O=C([O][Hg][CH2]C1COCC([CH2][Hg][O]C(=O)c2ccccc2)O1)c1ccccc1` (configuration not stated), the GI50 was 1.72 µM and the TGI is 3.24 µM.

`O=c1[nH]ccc2nc(N3CCC(O)CC3)nc(Nc3cccc(C(F)(F)F)c3)c12`: the GI50 is 1.76 µM and the TGI was determined as 7.11 µM.

With `O=C(CC12CC3CC(CC(C3)C1)C2)NCCOCCOCCOCCNC(=O)c1cc2c(o1)C(=O)c1ccccc1C2=O`, the GI50 was 1.39 µM and the TGI came out at 4.36 µM.

`Cc1cc(N2CCCC2)nc(NC2CCCC(Nc3ccnc4cc(Cl)ccc34)C2)n1` (configuration not stated): the GI50 is 1.41 µM and the TGI turned out to be 3.14 µM.

With `CCCN1CCN(c2ccc3nc(-c4ccc5nc(-c6cc(OC)ccc6OC)[nH]c5c4)[nH]c3c2)CC1`, the GI50 was 1.7 µM and the TGI stood at 3.31 µM.

In the case of `C[C@@H]1N=C(c2ccc(Br)cc2)Nc2nc3ccccn3c2C1=O`, the GI50 was 1.98 µM and the TGI was 5.12 µM.

With `CN(C)C1CCN(C(=O)c2ccc(NC(=O)Nc3ccc(-c4nc(N5CCOCC5)nc(N5CCOCC5)n4)cc3)cc2)CC1`, the GI50 is 0.00749 µM and 0.013 µM; the TGI is 0.0636 µM and 0.185 µM.

As to `Cc1ccc(-c2nc(N)nc3c2nnn3Cc2cccc(CO[C@H]3CCOC3)n2)o1`, the GI50 is 44.4 µM and the TGI was over 100 µM.

Regarding `Cc1ccc(NC2=C(Cl)C(=O)c3nc(C)ccc3C2=O)c(C)c1`, the GI50 was 1.61 µM and the TGI is 3.32 µM.

Regarding `O=C(Nc1ccc(F)cc1F)c1cc(Br)ccc1O`, the GI50 was 2.54 µM and the TGI was found to be 6.91 µM.

In the case of `COc1c(Cl)c2c(c(OC)c1OC)-c1ccc(SC)c(=O)cc1[C@@H](NC(=O)OCC(F)(F)F)CC2`, the GI50 was under 0.01 µM and the TGI was 17.3 µM.

Take `CC1(C)CC(n2cnc(-c3ccc(F)cc3)c2-c2ccnc(N)n2)CC(C)(C)N1`: the GI50 is 4.23 µM and the TGI was found to be 24.2 µM.

Take `O=S(=O)(c1ccc(N=C2NN=C(c3c[nH]c4ccccc34)CS2)cc1)N1CCOCC1`: the GI50 is 5.46 µM and the TGI was over 100 µM.

In the case of `CCN=c1cc2sc3cc(NCC)c(C)cc3nc-2cc1C`, the GI50 was 0.86 µM and the total growth inhibition concentration (TGI) worked out at 5.57 µM.

`COc1ccc(CNc2c3ccccc3nc3ccc(OC)cc23)cc1`: the GI50 is 1.82 µM and the TGI was determined as 4.31 µM.

Take `COc1cc2c(Oc3ccc4[nH]c(C)cc4c3F)ccnc2cc1OCC1(N)CC1`: the GI50 is 0.312 µM and the TGI is 1.67 µM.

Regarding `NC(=O)c1ccc2c(-c3ccnc(NCCCO)n3)c(-c3ccc(F)cc3)nn2c1`, the GI50 was over 16.1 µM and the TGI was over 25 µM.

With `O=P([O-])(O)OP(=O)([O-])O.[NH-][C@@H]1CCCC[C@H]1[NH-].[Pt+4]`, the GI50 is 21.5 µM and 8.19 µM; the TGI is > 100 µM and 27.7 µM.

Consider `c1cc(OCCN2CCCCC2)ccc1CNc1ccc2nc(CCC3CCCCC3)[nH]c2c1`, for which the GI50 is 1.58 µM and the TGI came to 3.84 µM.

Regarding `Cc1cc(N2CCN(c3ccnc4cc(Cl)ccc34)CC2)nc(NC2CCCCC2)n1`, the GI50 is 1.59 µM and the TGI was found to be 3.88 µM.

For `CCOc1ccc(Nc2nc(-c3ccc4c(c3)NC(=O)CO4)cs2)cc1`, the GI50 is 2.46 µM and the TGI turned out to be 8.04 µM.

Turning to `COc1ccc(-c2nc3ncccn3c2/C=C/C(=O)c2cc(OC)c(OC)c(OC)c2)cc1`, the GI50 is 1.81 µM and the TGI came out at 3.65 µM.

As for `O=C(N/N=C/c1ccccc1Cl)c1ccccc1Nc1ccnc(C(F)(F)F)c1`, the GI50 is 2.25 µM and the TGI came out at 11.1 µM.

Turning to `C=C[C@H]1CCC/C=C/[C@@H]2C[C@H](O)C[C@H]2[C@H](O)/C=C/C(=O)O1`, the GI50 is under 0.01 µM and the TGI is under 0.0153 µM.
